Drawing on ChEMBL document CHEMBL1130260, “A strategy for the incorporation of water molecules present in a ligand binding site into a three-dimensional quantitative structure--activity relationship analysis” (J Med Chem, 1997), this text covers pKi for 48 molecules.

By pKi is commonly meant −log10 of the Ki, conventionally taken in molar units. A high value points to a small Ki.

Sequence of Glycogen phosphorylase, muscle form (Oryctolagus cuniculus) (P00489 whole entry, looked up): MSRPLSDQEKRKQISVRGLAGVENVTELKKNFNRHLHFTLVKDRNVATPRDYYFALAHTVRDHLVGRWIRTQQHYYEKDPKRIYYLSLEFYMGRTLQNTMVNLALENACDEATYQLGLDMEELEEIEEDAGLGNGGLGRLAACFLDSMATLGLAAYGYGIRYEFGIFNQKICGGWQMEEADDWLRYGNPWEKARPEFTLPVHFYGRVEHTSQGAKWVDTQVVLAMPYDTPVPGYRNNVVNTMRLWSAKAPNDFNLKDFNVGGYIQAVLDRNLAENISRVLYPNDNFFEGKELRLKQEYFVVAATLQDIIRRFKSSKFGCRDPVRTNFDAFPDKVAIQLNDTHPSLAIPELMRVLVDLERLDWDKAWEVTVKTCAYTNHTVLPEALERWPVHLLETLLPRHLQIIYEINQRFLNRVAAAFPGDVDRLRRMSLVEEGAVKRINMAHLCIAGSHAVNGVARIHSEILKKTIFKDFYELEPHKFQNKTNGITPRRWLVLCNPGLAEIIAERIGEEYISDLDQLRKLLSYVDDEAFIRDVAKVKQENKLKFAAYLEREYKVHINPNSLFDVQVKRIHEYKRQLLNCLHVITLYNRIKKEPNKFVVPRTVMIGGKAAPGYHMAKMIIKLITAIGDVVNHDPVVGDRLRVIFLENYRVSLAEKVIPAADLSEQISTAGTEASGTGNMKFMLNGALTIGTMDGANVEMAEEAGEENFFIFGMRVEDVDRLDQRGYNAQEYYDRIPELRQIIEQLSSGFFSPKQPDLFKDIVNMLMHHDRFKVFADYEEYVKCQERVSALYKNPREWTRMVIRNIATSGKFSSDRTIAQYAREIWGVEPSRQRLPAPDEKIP

This assay has as its target Glycogen phosphorylase, muscle form (Oryctolagus cuniculus) (UniProt P00489). The following applies: Muscle tissue.
Molecule `COC(=O)C1OC(CO)C(O)C(O)C1O` (stereo in doubt; 18) yielded a pKi of 2.55.

As to `NNC(=O)[C@@H]1O[C@H](CO)[C@@H](O)[C@H](O)[C@H]1O` (stereo in doubt; 14), the pKi was 3.4.

`[N-]=[N+]=NC[C@@H]1O[C@H](CO)[C@@H](O)[C@H](O)[C@H]1O` returned a pKi of 1.82.

The molecule `O=C(NC1CC1)[C@H]1O[C@@H](CO)[C@@H](O)[C@H](O)[C@@H]1O` gave a negative logarithm of the Ki (pKi) of 2.89.

Molecule `OC[C@@H]1O[C@H](n2cc(O[C@@H]3O[C@H](CO)[C@@H](O)[C@H](O)[C@H]3O)c3ccccc32)[C@@H](O)[C@@H](O)[C@@H]1O` registered a pKi of 2.59.

`OCC1OC(CO)C(O)C(O)C1O` (stereo not drawn) registered a negative logarithm of the Ki (pKi) of 2.82.

`NC(=O)CS[C@H]1O[C@H](CO)[C@@H](O)[C@H](O)[C@H]1O`: the pKi stood at 1.68.

`NC(=O)N[C@H]1O[C@H](CO)[C@@H](O)[C@H](O)[C@H]1O` yielded a pKi of 3.85.

Molecule `[N-]=[N+]=NC[C@@]1(O)O[C@@H](CO)[C@@H](O)[C@H](O)[C@@H]1O` showed a pKi of 2.13.

`CC(=O)N[C@H]1O[C@H](CO)[C@@H](O)[C@H](O)[C@H]1O` registered a pKi of 4.5.

As for `N#CC[C@]1(O)O[C@H](CO)[C@@H](O)[C@H](O)[C@H]1O`, the pKi came out at 2.12.

`NC(=O)C1OC(CO)C(O)C(O)C1O` (stereo in doubt; 2) had a pKi of 3.43.

`CC(=O)NN1C(=O)N[C@@]2(O[C@@H](CO)[C@@H](O)[C@H](O)[C@@H]2O)C1=O` yielded a pKi of 3.26.

`O=C1CNC(=O)[C@@]2(N1)O[C@@H](CO)[C@@H](O)[C@H](O)[C@@H]2O` showed a pKi of 4.22.

For `CNC(=O)C1OC(CO)C(O)C(O)C1O` (stereo not drawn), the negative logarithm of the Ki (pKi) was determined as 3.8.

`NN1C(=O)N[C@@]2(O[C@@H](CO)[C@@H](O)[C@H](O)[C@@H]2O)C1=O`: the pKi was 3.84.

`COC(=O)N[C@]1(C(N)=O)O[C@H](CO)[C@@H](O)[C@H](O)[C@H]1O` (stereo in doubt; 35) came in with a pKi of 4.8.

`OCC1OC(S)C(O)C(O)C1O` (stereo not drawn) gave a negative-log Ki (pKi) of 3.

Turning to `O=C(N[C@H]1O[C@H](CO)[C@@H](O)[C@H](O)[C@H]1O)c1ccccc1`, the pKi was found to be 4.09.

For `COC(=O)N[C@@H]1O[C@H](CO)[C@@H](O)[C@H](O)[C@H]1O`, the pKi stood at 4.07.

Molecule `CS(=O)(=O)OCC1OC(CO)C(O)C(O)C1O` (stereo not drawn) returned a pKi of 2.32.

Molecule `O=C(CS[C@H]1O[C@H](CO)[C@@H](O)[C@H](O)[C@H]1O)Nc1ccc(F)cc1F` came in with a pKi of 1.72.

The molecule `OC[C@H]1O[C@H](OCC2O[C@@H](O)[C@H](O)[C@@H](O)[C@@H]2O)[C@H](O)[C@@H](O)[C@H]1O` (stereo partly drawn) returned a negative-log Ki (pKi) of 1.79.

Molecule `NC(=O)C1OC(CO)C(O)C(O)C1O` (stereo in doubt; 9) yielded a pKi of 3.36.

For `NNC(=O)[C@@H]1O[C@H](CO)[C@@H](O)[C@H](O)[C@H]1O` (stereo in doubt; 3), the negative logarithm of the Ki (pKi) was found to be 2.52.

`O=C(Nc1ccccc1)C1OC(CO)C(O)C(O)C1O` (stereo not drawn): the pKi was 2.27.

`[N-]=[N+]=NC[C@H]1O[C@H](CO)[C@@H](O)[C@H](O)[C@H]1O` registered a pKi of 1.65.

`CS(=O)(=O)OC[C@]1(O)O[C@@H](CO)[C@@H](O)[C@H](O)[C@@H]1O`: the negative logarithm of the Ki (pKi) was 2.43.

Regarding `NCC1OC(CO)C(O)C(O)C1O` (stereo in doubt; 5), the pKi came to 1.46.

`CCCC(=O)N[C@H]1O[C@H](CO)[C@@H](O)[C@H](O)[C@H]1O`: the pKi was found to be 4.03.

Molecule `O=C(CS[C@H]1O[C@H](CO)[C@@H](O)[C@H](O)[C@H]1O)Nc1ccccc1` returned a pKi of 2.44.

As for `O=C(NCCO)[C@H]1O[C@@H](CO)[C@@H](O)[C@H](O)[C@@H]1O`, the pKi was 2.59.

`N#CC[C@@H]1O[C@H](CO)[C@@H](O)[C@H](O)[C@H]1O`: the negative-log Ki (pKi) was found to be 2.05.

With `O=C(CCl)N[C@H]1O[C@H](CO)[C@@H](O)[C@H](O)[C@H]1O`, the negative logarithm of the Ki (pKi) was found to be 4.35.

The molecule `O=C(NCC(F)(F)F)[C@H]1O[C@@H](CO)[C@@H](O)[C@H](O)[C@@H]1O` yielded a pKi of 2.09.

For the molecule `O=C(CBr)N[C@H]1O[C@@H](CO)[C@@H](O)[C@H](O)[C@@H]1O`, the pKi was 4.36.

`OC[C@@H]1O[C@@](O)(CO)[C@@H](O)[C@@H](O)[C@@H]1O` showed a negative logarithm of the Ki (pKi) of 1.8.

`O=C1N[C@@]2(O[C@@H](CO)[C@@H](O)[C@H](O)[C@@H]2O)C(=O)N1O` gave a negative logarithm of the Ki (pKi) of 4.41.

`COC(=O)N[C@]1(C(N)=O)O[C@H](CO)[C@@H](O)[C@H](O)[C@H]1O` (stereo in doubt; 49): the pKi came to 3.5.

Turning to `O=C(Nc1ccc(O)cc1)[C@H]1O[C@@H](O)[C@@H](O)[C@H](O)[C@@H]1O`, the pKi amounted to 2.36.

Molecule `NCC(=O)N[C@H]1O[C@@H](CO)[C@@H](O)[C@H](O)[C@@H]1O` registered a negative logarithm of the Ki (pKi) of 3.43.

Molecule `CC(=O)NCC(=O)N[C@H]1O[C@H](CO)[C@@H](O)[C@H](O)[C@H]1O` displayed a negative logarithm of the Ki (pKi) of 3.

Regarding `NCCC1OC(CO)C(O)C(O)C1O` (stereo not drawn), the pKi was determined as 2.35.

`CCC(=O)N[C@H]1O[C@H](CO)[C@@H](O)[C@H](O)[C@H]1O` showed a pKi of 4.41.

`COC(=O)C1OC(CO)C(O)C(O)C1O` (stereo in doubt; 4) displayed a pKi of 1.62.

Take `OC[C@@H]1O[C@H](OC[C@H]2S[C@H](O)[C@H](O)[C@@H](O)[C@@H]2O)[C@@H](O)[C@@H](O)[C@@H]1O`: the negative-log Ki (pKi) was determined as 2.7.

`NCC1OC(CO)C(O)C(O)C1O` (stereo in doubt; 19): the pKi came to 1.78.

In the case of `CNNC(=O)[C@H]1O[C@H](CO)[C@@H](O)[C@H](O)[C@H]1O`, the pKi is 2.75.
